# Earlier results as cited in patent publication US8921361B2, “Triazine, pyrimidine and pyridine analogs and their use as therapeutic agents and diagnostic probes” (University of Basel, priority 2008, dated 2014).
# Test system: human cancer xenografts
smiles,measurement,setting,value
FC(F)c1nc2ccccc2n1-c1nc(N2CCOCC2)nc(N2CCOCC2)n1 [ZSTK474],toxicity in xenograft mice,"mouse, in vivo, po",without evidence of critical toxicity
same,antitumor activity against human cancer xenografts in mice,"orally administered, Yaguchi et al. 2006",potent antitumor activity
